Reference: US6358885B1, “Substituted phenylheterocyclic herbicides” (Mississippi State University, priority 1992, dated 2002)

Legend:
wild oat = assay: Test B preemergence/postemergence greenhouse plant response rating 0 to 10; assay type: in vivo, Avena fatua; details: 0 to 10 scale
Procedure, shortened: (§1)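 Both application timings were run together: seeds got compound preemergence, and established seedlings (two to eighteen cm) got it postemergence. Non-phytotoxic solvent carried the chemical. Ratings are visual, versus controls, at twelve to sixteen days.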

sorghum = assay: as above; assay type: in vivo, Sorghum bicolor; details: 0 to 10 scale
Procedure, shortened: as §1

ryegrass = assay: Test C preemergence/postemergence greenhouse plant response rating 0 to 100; assay type: in vivo, Lolium multiflorum; details: for Plant response rating Ryegrass: 62 g/ha, 0 to 100 scale
Procedure, shortened: (§2)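 Compounds in non-phytotoxic solvent went onto sandy loam before emergence (seeded one day earlier) or onto plants at the one-to-four leaf stage. Duck salad was treated via flood water (~2.5 cm, maintained) over silt loam.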

wild buckwheat [1] = assay: Test B preemergence/postemergence greenhouse plant response rating 0 to 10; assay type: in vivo, Polygonum convolvulus; details: 0 to 10 scale
Procedure, shortened: as §1

cheatgrass = assay: as above; assay type: in vivo, Bromus secalinus; details: 0 to 10 scale
Procedure, shortened: as §1

downy brome = assay: Test C preemergence/postemergence greenhouse plant response rating 0 to 100; assay type: in vivo, Bromus tectorum; details: for Plant response rating Downy Brome: 62 g/ha, 0 to 100 scale
Procedure, shortened: as §2

soybean = assay: as above; assay type: in vivo, Glycine max
Procedure, shortened: as §2

velvetleaf = assay: as above; assay type: in vivo, Abutilon theophrasti
Procedure, shortened: as §2

giant foxtail = assay: Test B preemergence/postemergence greenhouse plant response rating 0 to 10; assay type: in vivo, Setaria faberii; details: 0 to 10 scale
Procedure, shortened: as §1

wild buckwheat [2] = assay: Test C preemergence/postemergence greenhouse plant response rating 0 to 100; assay type: in vivo, Polygonum convolvulus
Procedure, shortened: as §2

lambsquarters = assay: as above; assay type: in vivo, Chenopodium album; details: POSTEMERGENCE
Procedure, shortened: as §2

duck salad = assay: Test C flood test plant response rating 0 to 100; assay type: in vivo, Heteranthera limosa
Procedure, shortened: as §2

barley = assay: Test C preemergence/postemergence greenhouse plant response rating 0 to 100; assay type: in vivo, Hordeum vulgare; details: for Plant response rating Barley Igri: 62 g/ha, 0 to 100 scale
Procedure, shortened: as §2

sugar beet = assay: as above; assay type: in vivo, Beta vulgaris
Procedure, shortened: as §2

cotton = assay: as above; assay type: in vivo, Gossypium hirsutum; details: for Plant response rating, Cotton: 62 g/ha, 0 to 100 scale
Procedure, shortened: as §2

chickweed [3] = assay: Test B preemergence/postemergence greenhouse plant response rating 0 to 10; assay type: in vivo, Stellaria media; details: 0 to 10 scale
Procedure, shortened: as §1

corn = assay: as above; assay type: in vivo, Zea mays; details: 0 to 10 scale
Procedure, shortened: as §1

chickweed [4] = assay: Test C preemergence/postemergence greenhouse plant response rating 0 to 100; assay type: in vivo, Stellaria media; details: POSTEMERGENCE
Procedure, shortened: as §2

[5] = POSTEMERGENCE, 62 g/ha, 0 to 100 scale

## CC(C)Oc1cc(-c2nn3c(c2Br)CCCC3)c(F)cc1Cl [Compound 38]
Wild oat; POSTEMERGENCE, Rate 50 g/ha
  Plant response rating, Wild oat: 3
Wild oat; PREEMERGENCE, Rate 50 g/ha
  Plant response rating, Wild oat: 0
Wild oat; Rate 200 g/ha, POSTEMERGENCE
  Plant response rating, Wild oat: 5
sorghum; POSTEMERGENCE, Rate 50 g/ha
  Plant response rating, Sorghum: 5
sorghum; PREEMERGENCE, Rate 50 g/ha
  Plant response rating, Sorghum: 0
sorghum; Rate 200 g/ha, POSTEMERGENCE
  Plant response rating, Sorghum: 6
sorghum; Rate 200 g/ha, PREEMERGENCE
  Plant response rating, Sorghum: 1
ryegrass; POSTEMERGENCE
  Plant response rating Ryegrass: 50
ryegrass; POSTEMERGENCE, Rate 1 g/ha
  Plant response rating (0 to 100), Ryegrass: 0
ryegrass; POSTEMERGENCE, Rate 4 g/ha
  Plant response rating (0 to 100), Ryegrass: 10
ryegrass; PREEMERGENCE
  Plant response rating Ryegrass: 0
ryegrass; PREEMERGENCE, Rate 1 g/ha
  Plant response rating (0 to 100), Ryegrass: 0
ryegrass; PREEMERGENCE, Rate 4 g/ha
  Plant response rating (0 to 100), Ryegrass: 0
ryegrass; Rate 16 g/ha, POSTEMERGENCE
  Plant response rating (0 to 100), Ryegrass: 30
ryegrass; Rate 16 g/ha, PREEMERGENCE
  Plant response rating (0 to 100), Ryegrass: 0
Wild buckwheat [1]; POSTEMERGENCE, Rate 50 g/ha
  Plant response rating, Wild buckwheat: 10
Wild buckwheat [1]; PREEMERGENCE, Rate 50 g/ha
  Plant response rating, Wild buckwheat: 8
Wild buckwheat [1]; Rate 200 g/ha, POSTEMERGENCE
  Plant response rating, Wild buckwheat: 10
Wild buckwheat [1]; Rate 200 g/ha, PREEMERGENCE
  Plant response rating, Wild buckwheat: 10
cheatgrass; POSTEMERGENCE, Rate 50 g/ha
  Plant response rating, Cheatgrass: 4
cheatgrass; POSTEMERGENCE, Rate 200 g/ha
  Plant response rating, Cheatgrass: 5
cheatgrass; PREEMERGENCE, Rate 50 g/ha
  Plant response rating, Cheatgrass: 0
cheatgrass; Rate 200 g/ha, PREEMERGENCE
  Plant response rating, Cheatgrass: 3
Downy brome; POSTEMERGENCE
  Plant response rating Downy Brome: 40
Downy brome; POSTEMERGENCE, Rate 1 g/ha
  Plant response rating (0 to 100), Downy Brome: 10
Downy brome; POSTEMERGENCE, Rate 4 g/ha
  Plant response rating (0 to 100), Downy Brome: 20
Downy brome; PREEMERGENCE
  Plant response rating Downy Brome: 0
Downy brome; PREEMERGENCE, Rate 1 g/ha
  Plant response rating (0 to 100), Downy Brome: 0
Downy brome; PREEMERGENCE, Rate 4 g/ha
  Plant response rating (0 to 100), Downy Brome: 0
Downy brome; Rate 16 g/ha, POSTEMERGENCE
  Plant response rating (0 to 100), Downy Brome: 30
Downy brome; Rate 16 g/ha, PREEMERGENCE
  Plant response rating (0 to 100), Downy Brome: 0
soybean; [5]
  Plant response rating, Soybean: 60
soybean; POSTEMERGENCE, Rate 1 g/ha
  Plant response rating (0 to 100), Soybean: 20
soybean; POSTEMERGENCE, Rate 4 g/ha
  Plant response rating (0 to 100), Soybean: 20
soybean; PREEMERGENCE, Rate 1 g/ha
  Plant response rating (0 to 100), Soybean: 0
soybean; PREEMERGENCE, Rate 4 g/ha
  Plant response rating (0 to 100), Soybean: 0
soybean; Rate 16 g/ha, POSTEMERGENCE
  Plant response rating (0 to 100), Soybean: 40
soybean; Rate 16 g/ha, PREEMERGENCE
  Plant response rating (0 to 100), Soybean: 0
velvetleaf; [5]
  Plant response rating, Velvetleaf: 90
velvetleaf; POSTEMERGENCE, Rate 1 g/ha
  Plant response rating (0 to 100), Velvetleaf: 10
velvetleaf; POSTEMERGENCE, Rate 4 g/ha
  Plant response rating (0 to 100), Velvetleaf: 10
velvetleaf; PREEMERGENCE, Rate 1 g/ha
  Plant response rating (0 to 100), Velvetleaf: 0
velvetleaf; PREEMERGENCE, Rate 4 g/ha
  Plant response rating (0 to 100), Velvetleaf: 20
velvetleaf; Rate 16 g/ha, POSTEMERGENCE
  Plant response rating (0 to 100), Velvetleaf: 80
velvetleaf; Rate 16 g/ha, PREEMERGENCE
  Plant response rating (0 to 100), Velvetleaf: 100
Giant foxtail; POSTEMERGENCE, Rate 50 g/ha
  Plant response rating, Giant foxtail: 5
Giant foxtail; PREEMERGENCE, Rate 50 g/ha
  Plant response rating, Giant foxtail: 2
Giant foxtail; Rate 200 g/ha, POSTEMERGENCE
  Plant response rating, Giant foxtail: 7
Giant foxtail; Rate 200 g/ha, PREEMERGENCE
  Plant response rating, Giant foxtail: 9
Wild buckwheat [2]; [5]
  Plant response rating, Wild buckwheat: 100
Wild buckwheat [2]; POSTEMERGENCE, Rate 1 g/ha
  Plant response rating (0 to 100), Wild buckwheat: 40
Wild buckwheat [2]; POSTEMERGENCE, Rate 4 g/ha
  Plant response rating (0 to 100), Wild buckwheat: 100
Wild buckwheat [2]; PREEMERGENCE, Rate 1 g/ha
  Plant response rating (0 to 100), Wild buckwheat: 0
Wild buckwheat [2]; PREEMERGENCE, Rate 4 g/ha
  Plant response rating (0 to 100), Wild buckwheat: 0
Wild buckwheat [2]; Rate 16 g/ha, POSTEMERGENCE
  Plant response rating (0 to 100), Wild buckwheat: 100
Wild buckwheat [2]; Rate 16 g/ha, PREEMERGENCE
  Plant response rating (0 to 100), Wild buckwheat: 20
lambsquarters; 62 g/ha, 0 to 100 scale
  Plant response rating Lambsquarters: 70
lambsquarters; Rate 1 g/ha
  Plant response rating (0 to 100), Lambsquarters: 60
lambsquarters; Rate 4 g/ha
  Plant response rating (0 to 100), Lambsquarters: 60
lambsquarters; Rate 16 g/ha
  Plant response rating (0 to 100), Lambsquarters: 70
Duck salad; POSTEMERGENCE section, flood test, Rate 1 g/ha
  Plant response rating (0 to 100), Duck salad: 0
Duck salad; POSTEMERGENCE section, flood test, Rate 4 g/ha
  Plant response rating (0 to 100), Duck salad: 0
Duck salad; Rate 16 g/ha, under POSTEMERGENCE head (flood test species)
  Plant response rating (0 to 100), Duck salad: 20
Duck salad; flood test species listed under POSTEMERGENCE, 62 g/ha, 0 to 100 scale
  Plant response rating Duck salad: 50
barley; POSTEMERGENCE
  Plant response rating Barley Igri: 50
barley; POSTEMERGENCE, Rate 1 g/ha
  Plant response rating (0 to 100), Barley Igri: 10
barley; PREEMERGENCE
  Plant response rating Barley Igri: 0
barley; PREEMERGENCE, Rate 1 g/ha
  Plant response rating (0 to 100), Barley Igri: 0
barley; PREEMERGENCE, Rate 4 g/ha
  Plant response rating (0 to 100), Barley Igri: 0
barley; Rate 4 g/ha, POSTEMERGENCE
  Plant response rating (0 to 100), Barley Igri: 30
barley; Rate 16 g/ha, POSTEMERGENCE
  Plant response rating (0 to 100), Barley Igri: 40
barley; Rate 16 g/ha, PREEMERGENCE
  Plant response rating (0 to 100), Barley Igri: 0
Sugar beet; [5]
  Plant response rating, Sugar beet: 100
Sugar beet; POSTEMERGENCE, Rate 1 g/ha
  Plant response rating (0 to 100), Sugar beet: 20
Sugar beet; POSTEMERGENCE, Rate 4 g/ha
  Plant response rating (0 to 100), Sugar beet: 70
Sugar beet; PREEMERGENCE, Rate 1 g/ha
  Plant response rating (0 to 100), Sugar beet: 0
Sugar beet; PREEMERGENCE, Rate 4 g/ha
  Plant response rating (0 to 100), Sugar beet: 0
Sugar beet; Rate 16 g/ha, POSTEMERGENCE
  Plant response rating (0 to 100), Sugar beet: 100
Sugar beet; Rate 16 g/ha, PREEMERGENCE
  Plant response rating (0 to 100), Sugar beet: 30
cotton; POSTEMERGENCE
  Plant response rating, Cotton: 100
cotton; POSTEMERGENCE, Rate 1 g/ha
  Plant response rating (0 to 100), Cotton: 60
cotton; POSTEMERGENCE, Rate 4 g/ha
  Plant response rating (0 to 100), Cotton: 80
cotton; PREEMERGENCE
  Plant response rating, Cotton: 0
cotton; PREEMERGENCE, Rate 1 g/ha
  Plant response rating (0 to 100), Cotton: 0
cotton; PREEMERGENCE, Rate 4 g/ha
  Plant response rating (0 to 100), Cotton: 0
cotton; Rate 16 g/ha, POSTEMERGENCE
  Plant response rating (0 to 100), Cotton: 90
cotton; Rate 16 g/ha, PREEMERGENCE
  Plant response rating (0 to 100), Cotton: 0
Chickweed [3]; POSTEMERGENCE, Rate 50 g/ha
  Plant response rating, Chickweed: 9
Chickweed [3]; POSTEMERGENCE, Rate 200 g/ha
  Plant response rating, Chickweed: 10
Chickweed [3]; PREEMERGENCE, Rate 50 g/ha
  Plant response rating, Chickweed: 0
Chickweed [3]; Rate 200 g/ha, PREEMERGENCE
  Plant response rating, Chickweed: 0
corn; POSTEMERGENCE, Rate 50 g/ha
  Plant response rating, Corn: 4
corn; POSTEMERGENCE, Rate 200 g/ha
  Plant response rating, Corn: 5
corn; PREEMERGENCE, Rate 50 g/ha
  Plant response rating, Corn: 0
corn; Rate 200 g/ha, PREEMERGENCE
  Plant response rating, Corn: 2
Chickweed [4]; 62 g/ha, 0 to 100 scale
  Plant response rating, Chickweed: 30
Chickweed [4]; Rate 1 g/ha
  Plant response rating (0 to 100), Chickweed: 0
Chickweed [4]; Rate 4 g/ha
  Plant response rating (0 to 100), Chickweed: 10
Chickweed [4]; Rate 16 g/ha
  Plant response rating (0 to 100), Chickweed: 20
